Measurements reported in US4226883A, “Carbamate derivatives and method for manufacture thereof” (priority 1974, dated 1980).

How the values were obtained:
[1] = system: cholinesterase (ChE), resistant strain; assay type: biochemical, green rice leafhopper, Nephotettix cincticeps; settings: for Inhibition of Cholinesterase R/S (resistant ratio): ratio of the resistant strain to the susceptible strain (I50), 30 min; for IC50 / rate of inhibition (%) in 10^-3 M, R: resistant strain; for IC50: 50% inhibition concentration, 30° C. 30 min with inhibitor, read-out: Inhibition of Cholinesterase I50 (M) R
Procedure: After centrifuged (30,000 g, 10 min.), the supernatant was used as the source of ChE.
(§1) (2) Inhibition: 1.0 ml of enzyme solution was incubated with 0.1 ml of inhibitor which diluted with acetone at 30° C. for 30 min. ((2) solution).
(§2) (3) Determination of ChE activity: 1.0 ml of acetylthiochline (3.5/2×10^-2 M), 1.0 ml of DTNB (5,5'-dithiobis-2-nitrobenzoic acid, 2.5×10^-4 M) and 4.0 ml of phosphate buffer (1/15 M, pH 7.4) were added to the (2) solution and incubated at 30° C. for 10 min.

[2] = target: cholinesterase (ChE), susceptible strain; assay: Inhibition of cholinesterase (acetylthiocholine method), susceptible strain enzyme; assay type: biochemical, green rice leafhopper, Nephotettix cincticeps; settings: for IC50: 50% inhibition concentration, 30° C. 30 min with inhibitor, read-out: Inhibition of Cholinesterase I50 (M) S
Procedure: The activity of ChE was performed by the acethyethiocholine method [Ellman (1961), Biochemical Pharmacology 7: 88-95].
[…]. After centrifuged (30,000 g, 10 min.), the supernatant was used as the source of ChE.
as §1
as §2, with “min. After incubation, […] of eserine (2×10^-3 M) was added in order to stop the enzyme reaction and the optical density of the yellow solution was measured at 412 mμ on the spectrophotometer.” for “min.”

[3] = system: resistant green rice leafhoppers (R); settings: ratio of the resistant strain to the susceptible strain (LD50); 1440 min
Procedure: (1) A 20-mg portion of a given test compound was weighed out and dissolved in 10 ml of acetone. The resultant solution was diluted at proper times with acetone.
(2) With a micro-syringe, the acetone solution of the test compound was topically applied to the thoracic region of female green rice leafhoppers at a fixed dose of 0.2 μl per head.
(3) The female green rice leafhoppers thus treated were placed in a plastic cup prepared in advance (measuring 7 cm in diameter and 3.5 cm in depth and containing rice seeds) and kept at a constant temperature of 26±1° C. After 24 hours' standing, the dead insects were counted.
In the case of a mixed insecticide, the LD50 was shown as a total dosage.

[4] = system: green rice leafhoppers of the strain RN; assay: Test Example 3: dust spray test (20 mesh metal gauze cylinder); assay type: in vivo, Nephotettix cincticeps; settings: for death ratio (%), mixture with Compound No. 1 / death ratio (%), mixture with Compound No. 6* / death ratio (%), mixture with Compound No. 24* / death ratio (%), mixture with Compound No. 35* / death ratio (%), mixture with Compound No. 40* / death ratio (%), mixture with Compound No. 49* / death ratio (%), mixture with Compound No. 81* / death ratio (%), mixture with Compound No. 118* / death ratio (%), mixture with Carbofuran / death ratio (%), mixture with Methomyl: Table 9, RN; for death ratio (%), mixture with Compound No. 1: dust mixed with 1; for death ratio (%), mixture with Compound No. 6*: dust mixed with 6*; for death ratio (%), mixture with Compound No. 24*: dust mixed with 24*; for death ratio (%), mixture with Compound No. 35*: dust mixed with 35*; for death ratio (%), mixture with Compound No. 40*: dust mixed with 40*; for death ratio (%), mixture with Compound No. 49*: dust mixed with 49*; for death ratio (%), mixture with Compound No. 81*: dust mixed with 81*; for death ratio (%), mixture with Compound No. 118*: dust mixed with 118*; for death ratio (%), mixture with Carbofuran: dust mixed with Carbofuran; for death ratio (%), mixture with Methomyl: dust mixed with Methomyl; for Effect of individual compound (RN), death ratio (%) (Table 9): dust, compound alone, RN strain
Procedure: The insecticides in the form of dust were tested for insecticidal activity.
The test for insecticidal activity was performed by the following procedure. […] The dust of a test compound (pulverized by means of a shaking pulverizer made by Taira Kosakusho, Ltd.) was applied onto the tube contents at a prescribed rate by spraying from outside the metal gauze by means of a bell-jar duster. The dust of the test compound was prepared uniformly mixing 2 parts of the dust of the individual compound or 1 part each of the dusts of the mixture components (total 2 parts) and 98 parts of a carrier obtained by mixing talc and clay in equal volumes.

Row | SMILES | Inhibition of Cholinesterase R/S (resistant ratio) [1] | IC50 [1] [M] | IC50 [2] [M] | further results
1 | C=CCNC(=O)Oc1cccc(C(C)(C)C)c1 [Compound 34] | 0.3 | 8.9e-06 | 2.6e-05 | Insecticidal Activity R/S (resistant ratio) [3]: 1.1
2 | C=CCOc1cccc(OC(=O)NC)c1 [Compound 98, reference compound] | 87.8 | 0.00036 | 4.1e-06 | –
3 | CCCCNC(=O)Oc1cccc(C)c1 [Compound 27] | < 0.3 | 0.00027 | > 0.001 | –
4 | C=CCNC(=O)Oc1cccc(C(C)CCC)c1 (stereo not shown) [Compound 23] | 0.3 | 1.3e-06 | – | Insecticidal Activity R/S (resistant ratio) [3]: 0.7
5 | CNC(=O)Oc1ccccc1NC(C)C [Compound 110, reference compound] | 73.9 | 0.00017 | 2.3e-06 | –
6 | CCCC(C)c1cccc(OC(=O)NCC)c1 (stereo not shown) [Compound 20] | 1.2 | 4.1e-06 | 3.4e-06 | Insecticidal Activity R/S (resistant ratio) [3]: 1.5
7 | CCNC(=O)Oc1cccc(C(C)C)c1 [Compound 12] | 0.5 | 1.7e-05 | 3.7e-05 | Insecticidal Activity R/S (resistant ratio) [3]: 3.7
8 | CNC(=O)Oc1cc(C)c(C)cc1C [Compound 59, reference compound] | 24.8 | 5.7e-05 | 2.3e-06 | –
9 | CNC(=O)Oc1ccccc1N(C)C [Compound 106, reference compound] | 13.5 | 0.00013 | 9.6e-06 | –
10 | CCNC(=O)Oc1ccccc1 [Compound 141, phenyl-N-ethylcarbamate] | – | > 0.001 | > 0.001 | rate of inhibition (%) in 10^-3 M, R [1]: 43.4%; rate of inhibition (%) in 10^-3 M, S [2]: 30.4%
11 | CCOc1cccc(OC(=O)NC)c1 [Compound 92, reference compound] | 17.6 | 0.0003 | 1.7e-05 | death ratio (%), mixture with Compound No. 1 [4]: 0%; death ratio (%), mixture with Compound No. 6* [4]: 0%; death ratio (%), mixture with Compound No. 24* [4]: 0%; death ratio (%), mixture with Compound No. 35* [4]: 10.0%; death ratio (%), mixture with Compound No. 40* [4]: 5.0%; death ratio (%), mixture with Compound No. 49* [4]: 0%; death ratio (%), mixture with Compound No. 81* [4]: 0%; death ratio (%), mixture with Compound No. 118* [4]: 25.0%; death ratio (%), mixture with Carbofuran [4]: 20.0%; death ratio (%), mixture with Methomyl [4]: 40.0%; Effect of individual compound (RN), death ratio (%) (Table 9) [4]: 0%
12 | CCCCNC(=O)Oc1ccccc1C(C)CC (stereo not shown) [Compound 9] | < 0.1 | 0.00014 | > 0.001 | Insecticidal Activity R/S (resistant ratio) [3]: < 1.0
13 | CNC(=O)Oc1ccc(SC)c(C)c1 [Compound 135, reference compound] | 3.5 | 3.5e-05 | 1e-05 | –
14 | C#CCOc1ccccc1OC(=O)NC [Compound 90, reference compound] | 9.6 | 7.9e-05 | 8.2e-06 | –
15 | CNC(=O)Oc1ccccc1OC [Compound 76, reference compound] | 32.3 | 0.00055 | 1.7e-05 | death ratio (%), mixture with Compound No. 1 [4]: 15.0%; death ratio (%), mixture with Compound No. 6* [4]: 0%; death ratio (%), mixture with Compound No. 24* [4]: 20.0%; death ratio (%), mixture with Compound No. 35* [4]: 10.0%; death ratio (%), mixture with Compound No. 40* [4]: 0%; death ratio (%), mixture with Compound No. 49* [4]: 0%; death ratio (%), mixture with Compound No. 81* [4]: 35.0%; death ratio (%), mixture with Compound No. 118* [4]: 45.0%; death ratio (%), mixture with Carbofuran [4]: 60.0%; death ratio (%), mixture with Methomyl [4]: 55.0%; Effect of individual compound (RN), death ratio (%) (Table 9) [4]: 0%
16 | CNC(=O)Oc1ccccc1 [Compound 140, reference compound] | – | > 0.001 | 0.00013 | rate of inhibition (%) in 10^-3 M, R [1]: 42.5%

Row | SMILES | Inhibition of Cholinesterase R/S (resistant ratio) [1] | IC50 [1] [M] | IC50 [2] [M] | further results
17 | CCCCNC(=O)Oc1ccccc1 [Compound 143] | – | > 0.001 | > 0.001 | rate of inhibition (%) in 10^-3 M, R [1]: 46.0%; rate of inhibition (%) in 10^-3 M, S [2]: 3.3%
18 | CCCNC(=O)Oc1ccccc1 [Compound 142, phenyl-N-n-propylcarbamate] | < 0.6 | 0.00066 | > 0.001 | rate of inhibition (%) in 10^-3 M, S [2]: 12.0%
19 | C=CCOc1ccccc1OC(=O)NC [Compound 88, reference compound] | 15.7 | 0.00011 | 7e-06 | –
20 | CCCCNC(=O)Oc1cc(C)cc(C)c1 [Compound 43] | 0.04 | 2.7e-05 | 0.00068 | –
21 | CCCCNC(=O)Oc1cccc(C(C)CCC)c1 (stereo not shown) [Compound 22] | 0.1 | 6.3e-06 | 5.1e-05 | Insecticidal Activity R/S (resistant ratio) [3]: 0.9
22 | C=CCNC(=O)Oc1ccccc1 [Compound 144, phenyl-N-allylcarbamate] | < 0.5 | 0.00052 | > 0.001 | rate of inhibition (%) in 10^-3 M, S [2]: 10.00%
23 | C#CCOc1cccc(OC(=O)NC)c1 [Compound 100, reference compound] | 24.3 | 0.00085 | 3.5e-05 | –
24 | CCC(C)Oc1ccccc1OC(=O)NC (stereo not shown) [Compound 86, reference compound] | 31.9 | 6.7e-05 | 2.1e-06 | –
25 | CCOc1ccccc1OC(=O)NC [Compound 79, reference compound] | 12.0 | 0.0003 | 2.5e-05 | death ratio (%), mixture with Compound No. 1 [4]: 0%; death ratio (%), mixture with Compound No. 6* [4]: 0%; death ratio (%), mixture with Compound No. 24* [4]: 0%; death ratio (%), mixture with Compound No. 35* [4]: 0%; death ratio (%), mixture with Compound No. 40* [4]: 10.0%; death ratio (%), mixture with Compound No. 49* [4]: 0%; death ratio (%), mixture with Compound No. 81* [4]: 5.0%; death ratio (%), mixture with Compound No. 118* [4]: 25.0%; death ratio (%), mixture with Carbofuran [4]: 40.0%; Effect of individual compound (RN), death ratio (%) (Table 9) [4]: 0%
26 | CCCCNC(=O)Oc1cccc(C(C)CC)c1 (stereo not shown) [Compound 18] | 0.09 | 4.3e-06 | 5e-05 | Insecticidal Activity R/S (resistant ratio) [3]: 0.9
27 | CCNC(=O)Oc1cccc(C(C)CC)c1 (stereo not shown) [Compound 16] | 0.9 | 5.6e-06 | 6.5e-06 | Insecticidal Activity R/S (resistant ratio) [3]: 3.7
28 | CNC(=O)Oc1cc(C)cc(C(C)C)c1 [Compound 45, 3-methyl-5-isopropylphenyl-N-methylcarbamate, reference compound] | – | – | – | mortality at 100 mg/cylinder ([4]; 2% dust, 100 mg, 24 hr, read-out: Mortality (%) after 24 hr., 100 mg Spray (Table 7)): 0%; mortality at 250 mg/cylinder ([4]; 2% dust, 250 mg, 24 hr, read-out: Mortality (%) after 24 hr., 250 mg Spray (Table 7)): 10%; Insecticidal Activity R/S (resistant ratio) [3]: 11.6
29 | CCCCNC(=O)Oc1ccc(C)c(C)c1 [Compound 38] | 0.04 | 2e-05 | 0.00056 | –
30 | CCCCNC(=O)Oc1cc(C)cc(C(C)C)c1 [Compound 48] | < 0.09 | 8.8e-05 | > 0.001 | –
31 | CCCCNC(=O)Oc1cccc(C(C)C)c1 [Compound 14] | 0.2 | 1.7e-05 | 7.4e-05 | –
32 | CCNC(=O)Oc1cccc(OCC)c1 [Compound 93] | 0.8 | 0.00035 | 0.00044 | –
